Laboratory results taken from ChEMBL document CHEMBL4364348, “Divalent cannabinoid-1 receptor ligands: A linker attachment point survey of SR141716A for development of high-affinity CB1R molecular probes” (Bioorg Med Chem Lett, 2019).

What was measured:
Cannabinoid receptor 1 [1] = molecular target: T1, Cannabinoid receptor 1 (Homo sapiens, UniProt P21554); experiment: Displacement of [3H]CP55940 from human CB1R in HEK293 cell membranes at 10 uM after 60 mins liquid scintillation analysis relative to control
Cannabinoid receptor 1 [2] = molecular target: T1, Cannabinoid receptor 1; experiment: Displacement of [3H]CP55940 from human CB1R in HEK293 cell membranes after 60 mins liquid scintillation analysis
D(2) dopamine receptor = D(2) dopamine receptor (Homo sapiens, UniProt P14416); experiment: Binding affinity to human D2R
Sequence of D(2) dopamine receptor (P14416 whole entry): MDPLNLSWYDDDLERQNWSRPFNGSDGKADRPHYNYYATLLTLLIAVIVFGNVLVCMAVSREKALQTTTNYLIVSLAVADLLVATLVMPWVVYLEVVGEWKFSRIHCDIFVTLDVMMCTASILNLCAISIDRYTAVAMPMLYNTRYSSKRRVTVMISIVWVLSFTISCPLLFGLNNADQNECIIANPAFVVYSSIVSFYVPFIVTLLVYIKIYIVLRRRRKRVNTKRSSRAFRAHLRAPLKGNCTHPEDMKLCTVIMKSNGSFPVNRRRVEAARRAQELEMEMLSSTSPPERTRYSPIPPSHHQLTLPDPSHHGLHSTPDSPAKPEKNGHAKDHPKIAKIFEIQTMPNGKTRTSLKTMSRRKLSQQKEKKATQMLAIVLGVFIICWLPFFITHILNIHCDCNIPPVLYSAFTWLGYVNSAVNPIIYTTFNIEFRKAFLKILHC

T1 sequence (P21554 whole entry): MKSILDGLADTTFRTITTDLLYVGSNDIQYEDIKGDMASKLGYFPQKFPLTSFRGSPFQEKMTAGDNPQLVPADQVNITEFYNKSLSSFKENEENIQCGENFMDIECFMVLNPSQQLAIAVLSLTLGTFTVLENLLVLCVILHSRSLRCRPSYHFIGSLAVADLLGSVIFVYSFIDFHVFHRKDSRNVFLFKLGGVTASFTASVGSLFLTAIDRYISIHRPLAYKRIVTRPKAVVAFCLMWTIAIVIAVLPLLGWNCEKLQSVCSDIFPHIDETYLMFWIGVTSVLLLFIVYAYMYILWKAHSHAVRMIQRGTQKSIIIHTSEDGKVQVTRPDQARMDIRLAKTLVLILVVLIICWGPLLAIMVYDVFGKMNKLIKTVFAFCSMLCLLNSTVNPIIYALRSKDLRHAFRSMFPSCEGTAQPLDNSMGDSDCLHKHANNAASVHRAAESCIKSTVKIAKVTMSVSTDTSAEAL

SMILES | inhibition (Cannabinoid receptor 1 [1]) [%] | Ki (Cannabinoid receptor 1 [2]) [µM] | Ki (D(2) dopamine receptor) [µM]
CNC(=O)c1ccc(-c2ccc(-c3c(C)c(C(=O)NN4CCCCC4)nn3-c3ccc(Cl)cc3Cl)cc2)cc1 | 55 |  | 
COC(=O)CCCCCNC(=O)CCCCCn1nc(C(=O)NN2CCCCC2)c(C)c1-c1ccc(Cl)cc1 | 33 |  | 
Cc1c(C(=O)NN2CCCCC2)nn(CCCCCC(=O)OC(C)(C)C)c1-c1ccc(Cl)cc1 | 37 |  | 
CCCN(CCc1ccc(NC(=O)CCC(=O)NCCCCCC(=O)NCc2ccc(C(=O)NCCCCCC(=O)NCCCCCC(=O)NCc3ccc(C(=O)NCCCCCC(=O)NCCCCCCNC(=O)c4nn(-c5ccc(Cl)cc5Cl)c(-c5ccc(Cl)cc5)c4C)cc3)cc2)cc1)C1CCc2c(O)cccc2C1 (centres undefined) | 0 |  | 0.0042
CC(=O)NCCOCCOCC(=O)NCCOCCOCC(=O)NCCCC[C@H](NC(C)=O)C(=O)NCCCC[C@H](NC(C)=O)C(=O)NCCCCCCNC(=O)c1nn(-c2ccc(Cl)cc2Cl)c(-c2ccc(Cl)cc2)c1C | 23 |  | 
Cc1c(C(=O)NN2CCCCC2)nn(-c2ccc(Cl)cc2Cl)c1-c1ccc(-c2ccc(C(=O)O)cc2)cc1 | 66 |  | 
COC(=O)CCCCCCCCCCNC(=O)CCCCCn1nc(C(=O)NN2CCCCC2)c(C)c1-c1ccc(Cl)cc1 | 13 |  | 
CCCN(CCc1ccc(NC(=O)CCC(=O)NCCCCCC(=O)NCc2ccc(C(=O)NCCCCCC(=O)NCCCCCCNC(=O)c3nn(-c4ccc(Cl)cc4Cl)c(-c4ccc(Cl)cc4)c3C)cc2)cc1)C1CCc2c(O)cccc2C1 (centres undefined) | 33 |  | 0.0022
Cc1c(C(=O)NN2CCCCC2)nn(-c2ccc(Cl)cc2Cl)c1-c1ccc(C#CCCOC(=O)CCCCCNC(=S)Nc2ccc3c(c2)C(=O)OC32c3ccc(O)cc3Oc3cc(O)ccc32)cc1 |  | 0.26 | 
CC(=O)N[C@@H](CCCCNC(=O)COCCOCCNC(=O)COCCOCCNC(=O)c1nn(-c2ccc(Cl)cc2Cl)c(-c2ccc(Cl)cc2)c1C)C(=O)NCCCC[C@H](NC(C)=O)C(=O)NCCCCCCNC(=O)c1nn(-c2ccc(Cl)cc2Cl)c(-c2ccc(Cl)cc2)c1C | 29 |  | 
CCOC(=O)c1ccc(CNC(=O)c2nn(-c3ccc(Cl)cc3Cl)c(-c3ccc(Cl)cc3)c2C)cc1 |  | 0.0082 | 
COC(=O)CCCCCCCCCCNC(=O)c1nn(-c2ccc(Cl)cc2Cl)c(-c2ccc(Cl)cc2)c1C | 5 |  | 
CC(=O)N[C@@H](CCCCNC(=O)c1nn(-c2ccc(Cl)cc2Cl)c(-c2ccc(Cl)cc2)c1C)C(=O)NCCCC[C@H](NC(C)=O)C(=O)NCCCCCCNC(=O)c1nn(-c2ccc(Cl)cc2Cl)c(-c2ccc(Cl)cc2)c1C | 11 |  | 
CC(=O)NCCCCCC(=O)NCc1ccc(C(=O)NCCCCCC(=O)NCCCCCCNC(=O)c2nn(-c3ccc(Cl)cc3Cl)c(-c3ccc(Cl)cc3)c2C)cc1 | 23 |  | 
CCCN(CCc1ccc(NC(=O)CCC(=O)NCCOCCOCC(=O)NCCOCCOCC(=O)NCCCC[C@H](NC(C)=O)C(=O)NCCCC[C@H](NC(C)=O)C(=O)NCCCCCCNC(=O)c2nn(-c3ccc(Cl)cc3Cl)c(-c3ccc(Cl)cc3)c2C)cc1)C1CCc2c(O)cccc2C1 (some centres undefined) | 33 |  | 0.0011
Cc1c(C(=O)NN2CCCCC2)nn(CCCCCC(=O)O)c1-c1ccc(Cl)cc1 | 10 |  | 
CCCN(CCc1ccc(NC(=O)CCC(=O)NCCCC[C@H](NC(C)=O)C(=O)NCCCC[C@H](NC(C)=O)C(=O)NCCCCCCNC(=O)c2nn(-c3ccc(Cl)cc3Cl)c(-c3ccc(Cl)cc3)c2C)cc1)C1CCc2c(O)cccc2C1 (some centres undefined) | 62 |  | 0.00084
CCCN(CCc1ccc(NC(=O)CCC(=O)NCCOCCOCC(=O)NCCCC[C@H](NC(C)=O)C(=O)NCCCC[C@H](NC(C)=O)C(=O)NCCCCCCNC(=O)c2nn(-c3ccc(Cl)cc3Cl)c(-c3ccc(Cl)cc3)c2C)cc1)C1CCc2c(O)cccc2C1 (some centres undefined) | 44 |  | 0.0024
Cc1c(C(=O)NN2CCCCC2)nn(-c2ccc(Cl)cc2Cl)c1-c1ccc(C#CCCOC(=O)CCCCCCCCCCN)cc1 | 87 | 0.097 | 
Cc1c(C(=O)NCCCCCCNC(=O)CCCCCNC(=O)c2ccc(CNC(=O)CCCCCNC(=O)c3nn(-c4ccc(Cl)cc4Cl)c(-c4ccc(Cl)cc4)c3C)cc2)nn(-c2ccc(Cl)cc2Cl)c1-c1ccc(Cl)cc1 | 29 |  | 
CC(=O)NCCCCCC(=O)NCc1ccc(C(=O)NCCCCCC(=O)NCCCCCC(=O)NCc2ccc(C(=O)NCCCCCC(=O)NCCCCCCNC(=O)c3nn(-c4ccc(Cl)cc4Cl)c(-c4ccc(Cl)cc4)c3C)cc2)cc1 | 0 |  | 
Cc1c(C(=O)NCCCCCCNC(=O)CCCCCNC(=O)c2ccc(CNC(=O)CCCCCNC(=O)CCCCCNC(=O)c3ccc(CNC(=O)CCCCCNC(=O)c4nn(-c5ccc(Cl)cc5Cl)c(-c5ccc(Cl)cc5)c4C)cc3)cc2)nn(-c2ccc(Cl)cc2Cl)c1-c1ccc(Cl)cc1 | 0 |  | 
COC(=O)CCCCCNC(=O)c1ccc(-c2ccc(-c3c(C)c(C(=O)NN4CCCCC4)nn3-c3ccc(Cl)cc3Cl)cc2)cc1 | 49 |  | 
Cc1c(C(=O)NCCCCCCCCCCC(=O)O)nn(-c2ccc(Cl)cc2Cl)c1-c1ccc(Cl)cc1 | 43 |  | 

Further lines, with some results ahead:

inhibition (Cannabinoid receptor 1 [1]) [%] | Ki (Cannabinoid receptor 1 [2]) [µM] | SMILES | Ki (D(2) dopamine receptor) [µM]
23 |  | CC(=O)N[C@@H](CCCCNC(=O)COCCOCCNC(=O)c1nn(-c2ccc(Cl)cc2Cl)c(-c2ccc(Cl)cc2)c1C)C(=O)NCCCC[C@H](NC(C)=O)C(=O)NCCCCCCNC(=O)c1nn(-c2ccc(Cl)cc2Cl)c(-c2ccc(Cl)cc2)c1C | 
 | 0.013 | COC(=O)CCCCCNC(=O)c1nn(-c2ccc(Cl)cc2Cl)c(-c2ccc(Cl)cc2)c1C | 
41 |  | CC(=O)NCCCC[C@H](NC(C)=O)C(=O)NCCCC[C@H](NC(C)=O)C(=O)NCCCCCCNC(=O)c1nn(-c2ccc(Cl)cc2Cl)c(-c2ccc(Cl)cc2)c1C | 
 | 2.11 | Cc1c(C(=O)NN2CCCCC2)nn(-c2ccc(Cl)cc2Cl)c1-c1ccc(C#CCCOC(=O)CCCCCCCCCCNC(=S)Nc2ccc3c(c2)C(=O)OC32c3ccc(O)cc3Oc3cc(O)ccc32)cc1 | 
0 |  | COC(=O)CCCCCCCCCCNC(=O)c1ccc(-c2ccc(-c3c(C)c(C(=O)NN4CCCCC4)nn3-c3ccc(Cl)cc3Cl)cc2)cc1 | 
98 | 0.18 | Cc1c(C(=O)NN2CCCCC2)nn(-c2ccc(Cl)cc2Cl)c1-c1ccc(C#CCCO)cc1 | 
100 | 0.011 | CC(=O)OCCC#Cc1ccc(-c2c(C)c(C(=O)NN3CCCCC3)nn2-c2ccc(Cl)cc2Cl)cc1 | 
 | 0.131 | COC(=O)c1ccc(-c2ccc(-c3c(C)c(C(=O)NN4CCCCC4)nn3-c3ccc(Cl)cc3Cl)cc2)cc1 | 
3 |  | CNC(=O)CCCCCn1nc(C(=O)NN2CCCCC2)c(C)c1-c1ccc(Cl)cc1 | 
79 | 0.106 | Cc1c(C(=O)NN2CCCCC2)nn(-c2ccc(Cl)cc2Cl)c1-c1ccc(C#CCCOC(=O)CCCCCNC(=O)OC(C)(C)C)cc1 | 
59 | 1.81 | Cc1c(C(=O)NN2CCCCC2)nn(-c2ccc(Cl)cc2Cl)c1-c1ccc(C#CCCOC(=O)CCCCCN)cc1 | 
97 | 0.045 | Cc1c(C(=O)NN2CCCCC2)nn(-c2ccc(Cl)cc2Cl)c1-c1ccc(C#CCCOCCCCCC(=O)OC(C)(C)C)cc1 | 
13 |  | Cc1c(C(=O)NN2CCCCC2)nn(CCCCCC(=O)NCCCCCC(=O)O)c1-c1ccc(Cl)cc1 | 
37 |  | CC(=O)NCCOCCOCC(=O)NCCCC[C@H](NC(C)=O)C(=O)NCCCC[C@H](NC(C)=O)C(=O)NCCCCCCNC(=O)c1nn(-c2ccc(Cl)cc2Cl)c(-c2ccc(Cl)cc2)c1C | 
